These results are taken from ChEMBL document CHEMBL3751705, “Synthesis and antituberculosis activity of indole-pyridine derived hydrazides, hydrazide-hydrazones, and thiosemicarbazones” (Bioorg Med Chem Lett, 2016).

The experiment deals with Mycobacterium tuberculosis. Kind of experiment: Antituberculosis activity against isoniazid-resistant Mycobacterium tuberculosis CN-40 by microdilution method. The experiment is classed as functional. On the technique in general: Broth dilution looks for growth in wells or tubes with falling amounts of substance.

≈ marks a conversion by molar mass, not a printed value.

Compound `NNC(=O)c1cccnc1` [NICOTINIC ACID HYDRAZIDE] returned an MIC above 20 µg/mL.

Compound `CCOC(=O)c1[nH]c2ccccc2c1CNNC(=O)c1cc[n+]([O-])cc1` displayed an MIC of 10 µg/mL (≈ 28.2 µM).

In turn, `NNC(=O)c1cc[n+]([O-])cc1` returned an MIC above 20 µg/mL.

`CCOC(=O)c1[nH]c2ccc(C)cc2c1/C=N/NC(N)=S`: the MIC was found to be 2 µg/mL (≈ 6.57 µM).

Consider `CC(=O)n1cc(NNC(=O)c2ccc[n+]([O-])c2)c2ccccc21`, for which the MIC was found to be 10 µg/mL (≈ 32.2 µM).

Compound `CCOC(=O)c1[nH]c2ccc(Cl)cc2c1CNNC(=O)c1ccncc1` had an MIC of 10 µg/mL (≈ 26.8 µM).

`CCOC(=O)c1[nH]c2ccccc2c1/C=N\NC(=O)c1ccncc1` had an MIC of 2 µg/mL (≈ 5.95 µM).

Compound `O=C(NNCc1c[nH]c2ccccc12)c1ccncc1` yielded an MIC of 10 µg/mL (≈ 37.6 µM).

`Cc1ccc2[nH]c(C(=O)O)c(/C=N\NC(=O)c3ccncc3)c2c1`: the MIC amounted to 4 µg/mL (≈ 12.4 µM). This MIC is about 2.5-fold lower than that of the compound before.

The compound `CCOC(=O)c1[nH]c2ccc(C)cc2c1CNNC(=O)c1ccncc1` returned an MIC of 10 µg/mL (≈ 28.4 µM).

For the compound `O=C(N/N=C\c1c[nH]c2ccccc12)c1cc[n+]([O-])cc1`, the MIC was 10 µg/mL (≈ 35.7 µM).

`CC(=O)n1cc(NNC(=O)c2cc[n+]([O-])cc2)c2ccccc21`: the MIC came out at 10 µg/mL (≈ 32.2 µM).

With `CCOC(=O)c1[nH]c2ccccc2c1/C=N\NC(=O)c1cc[n+]([O-])cc1`, it took 10 µg/mL (≈ 28.4 µM) to inhibit growth (MIC).

Compound `CCOC(=O)c1[nH]c2ccc(C)cc2c1/C=N\NC(=O)c1ccncc1` registered an MIC of 2 µg/mL (≈ 5.71 µM).

`CC(=O)n1cc(NNC(=O)c2ccncc2)c2ccccc21` yielded an MIC of 2 µg/mL (≈ 6.8 µM).

With `O=C(N/N=C\c1c[nH]c2ccccc12)c1ccncc1`, inhibition of growth (MIC) required 10 µg/mL (≈ 37.8 µM). Compared with the last compound, the MIC is about 5-fold higher.

Turning to `CCOC(=O)c1[nH]c2ccc(Cl)cc2c1/C=N\NC(=O)c1ccncc1`, it took 2 µg/mL (≈ 5.39 µM) to inhibit growth (MIC). Against the preceding compound, the MIC is about 5-fold lower.

On to `CCOC(=O)c1[nH]c2ccccc2c1CNNC(=O)c1ccncc1`, for which the MIC came out at 10 µg/mL (≈ 29.6 µM).

Regarding `NNC(=O)c1ccc[n+]([O-])c1`, the MIC is above 20 µg/mL.

In turn, `NNC(=O)c1ccncc1` [ISONIAZID] returned an MIC of 20 µg/mL (≈ 146 µM).

What is called MIC is the least concentration at which growth counts as inhibited.
